Laboratory results reported in patent publication US20090311249A1, “Capecitabine Combination Therapy” (priority 2006, published 2009).

Columns and labels:
[1] = Phase I and phase 2 single-agent trials of AP23573; format: in vivo, human; conditions: other dosing schedules
[2] = tested on: VEGF production in tumor cells; conditions: in vitro; cited from earlier work
[3] = In vitro combination experiments of AP23573 with cytotoxics; format: cell-based; conditions: with several cytotoxics including 5-fluorouracil (5FU)
[4] = tested on: VEGF; conditions: patients treated with AP23573; cited from earlier work
[5] = Phase 1b trial: pharmacokinetics of CAPE and its key metabolites in plasma; format: in vivo, human; conditions: AP23573 co-administered with CAPE
Source text: Planned pharmacokinetic (PK) and pharmacodynamic (PD) studies included: analysis of plasma, peripheral blood mononuclear cells (PBMC), skin, and tumor samples for effects on mTOR associated pathways*, VEGF* levels and the metabolism of CAPE and fluoropyrimidines (results of studies marked with a “*” are not presented herein).

SMILES: CO[C@H]1C[C@@H]2CC[C@@H](C)[C@@](O)(O2)C(=O)C(=O)N2CCCC[C@H]2C(=O)O[C@H]([C@H](C)C[C@@H]2CC[C@@H](OP(C)(C)=O)[C@H](OC)C2)CC(=O)[C@H](C)/C=C(\C)[C@@H](O)[C@@H](OC)C(=O)[C@H](C)C[C@H](C)/C=C/C=C/C=C/1C [AP23573]
- dose limiting toxicity [1]: oral mucositis
- effect on VEGF production [2]: inhibits VEGF production
- combination effect in vitro [3]: at least additive
- VEGF levels [4]: reduced VEGF levels

SMILES: O=c1[nH]cc(F)c(=O)[nH]1 [5FU, 5-fluorouracil]
- pharmacokinetics of 5FU [5]: not be impacted
